Results from patent US20230174492A1, “SUBSTITUTED CONDENSED AZINES AS ANTHELMINTIC COMPOUNDS” (Bayer Animal Health GmbH, priority 2020, published 2023).

What was measured:
Assay type in all cases: cell-based
[1] = test system: Dirofilaria immitis microfilariae; test: In Vitro Assay 4: Dirofilaria immitis microfilariae (DIROIM L1), motility; conditions: 72 h
[2] = test system: Dirofilaria immitis third-stage larvae; test: In Vitro Assay 5: Dirofilaria immitis (DIROIM L4), motility; conditions: 72 h
[3] = test system: Nippostrongylus brasiliensis; test: In Vitro Assay 3: Nippostrongylus brasiliensis (NIPOBR), acetylcholine esterase readout; conditions: read-out: activity (reduction of AChE compared to negative control)
[4] = test system: Nippostrongylus brasiliensis; test: as above; conditions: adult worms, read-out: activity (reduction of AChE compared to negative control); for inhibition at 1 µg/mL: at 1 μg/ml; for inhibition at 10 µg/mL: at 10 μg/ml
Experimental: In Vitro Assay 3: Nippostrongylus brasiliensis (NIPOBR)
Adult Nippostrongylus brasiliensis are washed with saline buffer containing 100 U/ml penicillin, 0.1 mg/ml streptomycin and 2.5 μg/ml amphotericin B. Test compounds are dissolved in DMSO and worms are incubated in medium in a final concentration of 10 μg/ml (10 ppm) respectively 1 μg/ml (1 ppm). An aliquot of the medium is used to determine the acetylcholine esterase activity in comparison to a negative control. The principle of measuring acetylcholine esterase as readout for anthelmintic activity is described in Rapson et al (1986) and Rapson et al (1987).

D. immitis Slo-1 = D. immitis Slo-1 (Dirofilaria immitis, UniProt I0DFK5); test: In Vitro Assay 2: D. immitis Slo-1, action at a recombinant D. immitis cell line (membrane potential, FLIPR)
Chain of D. immitis Slo-1 (I0DFK5 1-1119): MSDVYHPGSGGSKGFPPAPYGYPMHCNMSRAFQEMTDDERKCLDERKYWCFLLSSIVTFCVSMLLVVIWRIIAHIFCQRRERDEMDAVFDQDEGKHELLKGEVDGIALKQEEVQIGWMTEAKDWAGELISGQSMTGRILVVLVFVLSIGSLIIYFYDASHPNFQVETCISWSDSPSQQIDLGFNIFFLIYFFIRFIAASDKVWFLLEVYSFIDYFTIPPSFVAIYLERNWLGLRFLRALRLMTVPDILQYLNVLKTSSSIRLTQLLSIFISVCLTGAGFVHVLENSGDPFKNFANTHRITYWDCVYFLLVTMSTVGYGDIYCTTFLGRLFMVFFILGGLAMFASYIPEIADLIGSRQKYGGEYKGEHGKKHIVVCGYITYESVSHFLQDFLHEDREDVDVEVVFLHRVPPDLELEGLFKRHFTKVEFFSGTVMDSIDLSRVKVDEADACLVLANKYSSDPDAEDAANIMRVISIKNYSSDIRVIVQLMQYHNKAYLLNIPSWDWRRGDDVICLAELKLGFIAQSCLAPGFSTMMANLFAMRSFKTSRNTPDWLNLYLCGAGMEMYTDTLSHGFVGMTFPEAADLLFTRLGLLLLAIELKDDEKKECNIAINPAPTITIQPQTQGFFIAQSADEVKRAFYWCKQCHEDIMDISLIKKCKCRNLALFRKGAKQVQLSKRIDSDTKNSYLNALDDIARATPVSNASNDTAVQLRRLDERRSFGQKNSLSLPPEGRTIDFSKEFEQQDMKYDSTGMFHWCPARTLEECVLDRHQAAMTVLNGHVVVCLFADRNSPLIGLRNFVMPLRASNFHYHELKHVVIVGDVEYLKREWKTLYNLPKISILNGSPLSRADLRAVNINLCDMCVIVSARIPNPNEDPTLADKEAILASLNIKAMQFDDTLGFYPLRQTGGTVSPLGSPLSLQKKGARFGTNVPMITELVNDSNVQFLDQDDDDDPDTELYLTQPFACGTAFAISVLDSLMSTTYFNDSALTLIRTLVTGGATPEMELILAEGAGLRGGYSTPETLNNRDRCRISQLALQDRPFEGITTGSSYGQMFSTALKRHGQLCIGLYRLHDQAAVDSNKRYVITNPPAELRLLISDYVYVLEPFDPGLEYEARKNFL

Compound | EC50 [1] | EC50 [2] | inhibition at 0.1 µg/mL [3] | inhibition at 1 µg/mL [4] | inhibition at 10 µg/mL [4] | EC50 (D. immitis Slo-1)
CN(C)c1c(NC(=O)C2CCOc3ccccc32)cnc2c(-c3cc(F)cc(F)c3F)cccc12 (racemic) [Example 5, N-(4-(Dimethylamino)-8-(2,3,5-trifluorophenyl)quinolin-3-yl)chroman-4-carboxamide] | < 0.1 µg/mL | < 0.1 µg/mL | > 80% | > 80% | > 80% | 100 to 1000 nM
CN(C)c1c(NC(=O)C2CCc3ccccc32)cnc2c(-c3cc(F)cc(F)c3F)cccc12 (racemic) [Example 6, N-(4-(Dimethylamino)-8-(2,3,5-trifluorophenyl)quinolin-3-yl)-2,3-dihydro-1H-indene-1-carboxamide] | < 0.1 µg/mL | < 0.1 µg/mL | – | – | – | 100 to 1000 nM
O=C(Nc1cnc2c(-c3cc(F)cc(F)c3F)cccc2c1N1CCOCC1)C1CCOc2ccccc21 (racemic) [Example 7, N-(4-Morpholino-8-(2,3,5-trifluorophenyl)quinolin-3-yl)chroman-4-carboxamide] | < 0.1 µg/mL | < 0.1 µg/mL | – | > 80% | > 80% | 10 to 100 nM
CCc1c(NC(=O)C2CCOc3ccccc32)cnc2c(-c3cc(F)cc(F)c3F)cccc12 (racemic) [Example 8, N-(4-Ethyl-8-(2,3,5-trifluorophenyl)quinolin-3-yl)chroman-4-carboxamide] | – | < 0.1 µg/mL | – | > 80% | > 80% | 100 to 1000 nM
O=C(Nc1cnc2c(-c3cc(F)cc(F)c3F)cccc2c1C1CCOCC1)C1CCOc2ccccc21 (racemic) [Example 9, N-(4-(Tetrahydro-2H-pyran-4-yl)-8-(2,3,5-trifluorophenyl)quinolin-3-yl)chroman-4-carboxamide] | < 0.1 µg/mL | < 0.1 µg/mL | > 80% | > 80% | > 80% | 100 to 1000 nM
O=C(Nc1cnc2c(-c3cc(F)cc(F)c3F)c(F)ccc2c1C1CCOCC1)C1CCOc2ccccc21 (racemic) [Example 10, N-(7-Fluoro-4-(tetrahydro-2H-pyran-4-yl)-8-(2,3,5-trifluorophenyl)quinolin-3-yl)chroman-4-carboxamide] | < 0.1 µg/mL | < 0.1 µg/mL | > 80% | > 80% | > 80% | 10 to 100 nM
CN(C)c1c(NC(=O)C2CCOc3ccccc32)cnc2c(-c3cc(F)cc(F)c3F)c(F)ccc12 (racemic) [Example 11, N-(4-(dimethylamino)-7-fluoro-8-(2,3,5-trifluorophenyl)quinolin-3-yl)chroman-4-carboxamide] | < 0.1 µg/mL | < 0.1 µg/mL | > 80% | > 80% | > 80% | 10 to 100 nM
CN(C)c1c(NC(=O)C2CCc3ccccc32)cnc2c(-c3cc(F)cc(F)c3F)c(F)ccc12 (racemic) [Example 12, N-(4-(dimethylamino)-7-fluoro-8-(2,3,5-trifluorophenyl)quinolin-3-yl)-2,3-dihydro-1H-indene-1-carboxamide] | < 0.1 µg/mL | < 0.1 µg/mL | – | – | – | 100 to 1000 nM
CCc1c(NC(=O)C2CCOc3ccccc32)cnc2c(-c3cc(F)cc(F)c3F)c(F)ccc12 (racemic) [Example 13, N-(4-ethyl-7-fluoro-8-(2,3,5-trifluorophenyl)quinolin-3-yl)chromane-4-carboxamide] | < 0.1 µg/mL | < 0.1 µg/mL | > 80% | > 80% | > 80% | 10 to 100 nM
O=C(Nc1cnc2c(-c3cc(Cl)cc(Cl)c3)cccc2c1C1CCOCC1)C1CCc2ccccc21 (racemic) [Example 14, N-(8-(3,5-dichlorophenyl)-4-(tetrahydro-2H-pyran-4-yl)quinolin-3-yl)-2,3-dihydro-1H-indene-1-carboxamide] | < 0.1 µg/mL | < 0.1 µg/mL | > 80% | > 80% | > 80% | 100 to 1000 nM
O=C(Nc1cnc2c(-c3cc(Cl)cc(Cl)c3)c(F)ccc2c1N1CCOCC1)C1CCOc2ccccc21 (racemic) [Example 15, N-(8-(3,5-dichlorophenyl)-7-fluoro-4-morpholinoquinolin-3-yl)chromane-4-carboxamide] | < 0.1 µg/mL | < 0.1 µg/mL | – | > 80% | > 80% | 10 to 100 nM
CCc1c(NC(=O)C2CCOc3ccccc32)cnc2c(-c3cc(Cl)cc(Cl)c3)c(F)ccc12 (racemic) [Example 16, N-(8-(3,5-dichlorophenyl)-4-ethyl-7-fluoroquinolin-3-yl)chromane-4-carboxamide] | < 0.1 µg/mL | < 0.1 µg/mL | > 80% | > 80% | > 80% | 100 to 1000 nM
CN(C)c1c(NC(=O)C2CCOc3ccccc32)cnc2c(-c3cccc(Cl)c3Cl)c(F)ccc12 (racemic) [Example 17, N-(8-(2,3-dichlorophenyl)-4-(dimethylamino)-7-fluoroquinolin-3-yl)chroman-4-carboxamide] | < 0.1 µg/mL | < 0.1 µg/mL | > 80% | > 80% | > 80% | 100 to 1000 nM
CN(C)c1c(NC(=O)C2CCc3ccccc32)cnc2c(-c3cccc(Cl)c3Cl)c(F)ccc12 (racemic) [Example 18, N-(8-(2,3-dichlorophenyl)-4-(dimethylamino)-7-fluoroquinolin-3-yl)-2,3-dihydro-1H-indene-1-carboxamide] | < 0.1 µg/mL | < 0.1 µg/mL | – | > 80% | > 80% | 100 to 1000 nM
CN(C)c1c(NC(=O)[C@H]2CCOc3ccccc32)cnc2c(-c3cc(F)cc(F)c3F)cccc12 [Example 1, (S)-N-(4-(dimethylamino)-8-(2,3,5-trifluorophenyl)quinolin-3-yl)chromane-4-carboxamide] | < 0.1 µg/mL | < 0.1 µg/mL | – | > 80% | > 80% | 100 to 1000 nM
CN(C)c1c(NC(=O)[C@@H]2CCc3ccccc32)cnc2c(-c3cc(F)cc(F)c3F)cccc12 [Example 4, (R)-N-(4-(dimethylamino)-8-(2,3,5-trifluorophenyl)quinolin-3-yl)-2,3-dihydro-1H-indene-1-carboxamide] | < 0.1 µg/mL | < 0.1 µg/mL | – | – | – | 100 to 1000 nM
